Experimental data taken from patent publication US6335443B1, “Chemical synthesis of exochelins” (Keystone Biomedical, Inc., priority 1998, dated 2002).

Columns and labels:
[1] = Capacity to chelate iron from ferric ammonium citrate solution (reverse-phase HPLC, 450 nm); assay type: binding
Method: A. Capacity to Chelate Iron. To determine if the synthetic desferri-Exochelin 772SM(R) could chelate iron, as does the native form, the Exochelin was dissolved in 0.1% TFA containing ferric ammonium citrate at a 10-fold molar excess of iron to Exochelin. The solution was then loaded on a Bondapak Phenyl 125 Å 10 μm (3.9×300 mm) HPLC column and the Exochelin was subjected to reverse-phase HPLC (High Pressure Liquid Chromatography) on a Rainin (Woburn, Mass.) HPXL system. The Exochelin was eluted with a 0-100% gradient of a buffer consisting of 0.1% TFA and 50% acetonitrile at a flow rate of 1 ml/min. The ferri-exochelins were monitored at 220-nm and 450-nm absorbance. The mass of ferri-exochelin was assayed by measuring the area under the peak at 450-nm and applying a conversion factor derived from assaying known amounts of ferri-exochelin 772SM(R).
A. Capacity to Chelate Iron. The capacity of synthetic Exochelin 772SM(S) to chelate iron from a solution containing a 10-fold molar excess of ferric iron (ferric ammonium citrate) was assayed as described above.

ferri-Exochelin 758SM [2] = test: Capacity to remove iron from a different Exochelin species (Ferri-Exochelin 758SM); assay type: binding
Method: C. Capacity to Remove Iron from a Different Exochelin Species. To assess the affinity of the synthetic desferri-Exochelin 772SM(R) for iron, its capacity to remove iron from a different Exochelin species, ferri-Exochelin 758SM, was evaluated. The capacity of synthetic and native desferri-Exochelin 772SM(R) to remove iron from ferri-Exochelin 758SM was also evaluated and compared. Either native or synthetic desferri-Exochelin 772SM(R) were independently mixed with ferri-Exochelin 758SM. The amount of iron acquired in 1 hour by the desferri-Exochelins was assayed by subjecting the Exochelin to reverse-phase HPLC on a phenyl column, as described above, and the area under the 450 nm absorbance peak was measured. The amount of iron-Exochelin was then calculated using a conversion factor derived from assaying known amounts of ferri-Exochelin 772SM(R).
C. Capacity to Remove Iron from a Different Exochelin Species. To assess the affinity of the synthetic desferri-Exochelin 772SM(S) for iron, its capacity to remove iron from a different exochelin species, ferri-Exochelin 758SM was evaluated. The capacity of synthetic desferri-Exochelin 772SM(S) and native desferri-Exochelin 772SM(R) to remove iron from ferri-Exochelin 758SM was also evaluated and compared. Either synthetic desferri-Exochelin 772SM(S) or native desferri-Exochelin 772SM(R) was mixed with ferri-Exochelin 758SM. The amount of iron acquired by the desferri-exochelins after 1 hour was assayed by subjecting the molecule to reverse-phase HPLC on a phenyl column, as described above, and the area under the 450 nm absorbance peak was measured. The amount of iron-exochelin was then calculated using a conversion factor derived from assaying known amounts of ferri-Exochelin 772SM(R) and ferri-Exochelin 772SM(S).

ferri-Exochelin 758SM [3] = test: Capacity to remove iron from Ferri-Exochelin 758SM in the same vial (772SM(R) vs 772SM(S)); assay type: binding; settings: Table 3
Method: To further assess the relative affinities of the stereoisomers desferri-Exochelin 772SM(R) and 772SM(S) for iron, their capacity to remove iron from a different exochelin species in the same vial were compared.
In the experiment,15.6 μg of 1.1% iron-saturated synthetic Exochelin 772SM(R) and 17.4 μg of 1.0% iron-saturated synthetic Exochelin 772SM(S) was mixed with 13.5 μg of 100% iron-saturated native Exochelin 758SM.

[4] = target: 40% iron-saturated human transferrin (Homo sapiens, UniProt P02787); test: Capacity to remove iron from 40% iron-saturated human transferrin; assay type: biochemical; settings: Fe3+:desferri-Exochelin 10:1, PBS pH 7.4
Method: (§1) A. 40% Iron-Saturated Human Transferrin. To assess the capacity of the 3 different desferri-Exochelins to remove iron from 40% iron-saturated human transferrin, each of them was incubated for 1, 3, and 24 hours with 40% iron-saturated transferrin such that the ratio of Fe^3+: desferri-Exochelin equaled 10:1. The incubation was carried out in PBS, pH 7.4. Afterwards, the Exochelin and transferrin were separated from each other by centrifugation through a 10,000 dalton cut-off filter. The transferrin (mass 76,000 daltons) was completely excluded by this filter whereas 85% of the Exochelin (mass<1,000) was recovered in the filtrate. To determine the total amount of exochelin recovered, the exochelin in the filtrate was saturated with a 20:1 molar excess of ferric ammonium citrate and subjected to reverse-phase HPLC as described above. To determine the amount of iron-saturated Exochelin in the filtrate at each time point, the filtrate was subjected to reverse-phase HPLC without the addition of iron. The % iron-saturation was calculated as follows: [formula]

[5] = target: holo-transferrin (92% iron-saturated human transferrin) (Homo sapiens, UniProt P02787); test: Capacity to remove iron from holo-transferrin (92% iron-saturated human transferrin); assay type: biochemical; settings: Fe3+:desferri-Exochelin 10:1
Method: as §1
B. Holo-Transferrin (92% Iron-Saturated Human Transferrin). To assess the capacity of the 3 different desferri-Exochelins to remove iron from holo-transferrin (92% iron-saturated human transferring, each of them was incubated for 1, 3, and 24 h with 92% iron-saturated transferrin such that the ratio of Fe^3+: desferri-Exochelin equaled 10:1, as in the aforementioned study with 40% iron-saturated transferrin. The % iron-saturation of the Exochelins was assayed as above.

[6] = target: human apotransferrin (<0.7% iron-saturated) (Homo sapiens, UniProt P02787); test: Control incubation with human apotransferrin (<0.7% iron-saturated); assay type: biochemical; settings: apotransferrin 38 mg/ml, listed as Synthetic Desferri-Exochelin 772SM(S)
Method: as §1
C. Apotransferrin (<0.7% Iron-Saturated Human Transferrin). As a control, the three desferri-exochelins were incubated for 3 h and 24 h with human apotransferrin (<0.7% iron-saturated) at a concentration of 38 mg/ml, the same concentration of protein as in the study utilizing 92% iron-saturated transferrin in B above. None of the desferri-exochelins acquired appreciable amounts of iron (Table 6).

[7] = 1 h, listed as Synthetic Desferri-Exochelin 772SM(S)
[8] = 3 h, listed as Synthetic Desferri-Exochelin 772SM(S)
[9] = listed as Synthetic Desferri-Exochelin 772SM(S)
[10] = listed as synthetic desferri-exochelin 772SM(S)

Chain of holo-transferrin (92% iron-saturated human transferrin) (P02787 20-698): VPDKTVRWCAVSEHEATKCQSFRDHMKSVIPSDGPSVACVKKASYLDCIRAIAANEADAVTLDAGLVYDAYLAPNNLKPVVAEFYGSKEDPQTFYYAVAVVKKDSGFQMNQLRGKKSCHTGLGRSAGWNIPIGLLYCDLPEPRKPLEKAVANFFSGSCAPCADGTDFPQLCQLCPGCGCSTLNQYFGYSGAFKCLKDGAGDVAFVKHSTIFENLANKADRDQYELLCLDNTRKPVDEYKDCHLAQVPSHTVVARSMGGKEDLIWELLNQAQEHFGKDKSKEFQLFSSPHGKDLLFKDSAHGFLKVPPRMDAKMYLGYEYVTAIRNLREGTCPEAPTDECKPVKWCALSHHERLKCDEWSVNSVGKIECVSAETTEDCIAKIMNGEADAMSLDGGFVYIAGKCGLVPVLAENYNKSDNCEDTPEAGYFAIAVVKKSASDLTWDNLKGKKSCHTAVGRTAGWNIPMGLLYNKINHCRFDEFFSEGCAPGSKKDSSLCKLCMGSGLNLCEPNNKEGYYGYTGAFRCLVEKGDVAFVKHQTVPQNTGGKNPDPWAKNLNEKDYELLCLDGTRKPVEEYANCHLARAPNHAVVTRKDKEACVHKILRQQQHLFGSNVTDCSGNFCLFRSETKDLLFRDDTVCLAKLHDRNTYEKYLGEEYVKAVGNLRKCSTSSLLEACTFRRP
Chain of 40% iron-saturated human transferrin (P02787 20-698): as above
Chain of human apotransferrin (<0.7% iron-saturated) (P02787 20-698): as above

## COC(=O)CCCCCC(=O)N(O)CCCCC(NC(=O)C1COC(c2ccccc2O)=N1)C(=O)OC(C)CC(=O)NC1CCCCN(O)C1=O [Synthetic 772SM(S), Exochelin 772SM(S)]
[1]; absence of ferric ammonium citrate, listed as synthetic Exochelin 772SM(S)
  ferri-exochelin eluted from the HPLC column, % of the Exochelin added: 1.03%
[1]; ferric iron in solution, listed as synthetic desferri-Exochelin 772SM(S)
  capacity to chelate iron (in words): rapidly chelates iron in solution
[1]; presence of ferric ammonium citrate, 10-fold molar excess of iron, listed as synthetic Exochelin 772SM(S)
  exochelin eluted from the column in the ferri form: fully saturated with iron
ferri-Exochelin 758SM [2]; Table 2, 0 hour, assuming comparable affinities for iron
  % of Calculated Iron-Saturation at Equilibrium 0 hour: 2.3%
ferri-Exochelin 758SM [2]; Table 2, 0 hour, mixed with ferri-Exochelin 758SM
  % Iron-Saturation 0 hour: 1.0%
ferri-Exochelin 758SM [2]; Table 2, assuming comparable affinities for iron
  % of Calculated Iron-Saturation at Equilibrium 1 hour: 89.6%
ferri-Exochelin 758SM [2]; Table 2, assuming comparable affinities for iron, listed as synthetic Exochelin 772SM(S)
  % of Calculated Iron-Saturation at Equilibrium 1 hour: 89.6%
ferri-Exochelin 758SM [2]; Table 2, mixed with ferri-Exochelin 758SM
  % Iron-Saturation 1 hour: 39.7%
ferri-Exochelin 758SM [2]; Table 2, mixed with ferri-Exochelin 758SM, listed as synthetic Exochelin 772SM(S)
  % Iron-Saturation 1 hour: 39.7%
ferri-Exochelin 758SM [2]; removal of iron from ferri-Exochelin 758SM within 1 h
  affinity for iron (in words): very high affinity for iron
ferri-Exochelin 758SM [3]; 0 hour, 772SM(R), 772SM(S) and 758SM in the same vial
  % Iron-Saturation 0 hour: 1.0%
ferri-Exochelin 758SM [3]; 0 hour, same vial, assuming comparable affinities
  % of Calculated Iron-Saturation at Equilibrium 0 hour: 3.3%
ferri-Exochelin 758SM [3]; 772SM(R), 772SM(S) and 758SM in the same vial
  % Iron-Saturation 1 hour: 25.9%
ferri-Exochelin 758SM [3]; 772SM(R), 772SM(S) and 758SM in the same vial, listed as Exochelin 772SM(S)
  % Iron-Saturation 1 hour: 25.9%
ferri-Exochelin 758SM [3]; same vial, assuming comparable affinities
  % of Calculated Iron-Saturation at Equilibrium 1 hour: 86.6%
ferri-Exochelin 758SM [3]; same vial, assuming comparable affinities, listed as Exochelin 772SM(S)
  % of Calculated Iron-Saturation at Equilibrium 1 hour: 86.6%
[4]; [7]
  Iron-Saturation 1 h: 14.2%
[4]; [8]
  Iron-Saturation 3 h: 13.8%
[4]; [9]
  Iron-Saturation 24 h: 35.3%
[4]; [10]
  Iron-Saturation 24 h: 35.3%
[5]; 0 h, listed as Synthetic Desferri-Exochelin 772SM(S)
  Iron-Saturation 0 h: 1.0%
[5]; [7]
  Iron-Saturation 1 h: 18.1%
[5]; [8]
  Iron-Saturation 3 h: 15.5%
[5]; [9]
  Iron-Saturation 24 h: 47.2%
[5]; [10]
  Iron-Saturation 24 h: 47.2%
[6]; 0 h
  Iron-Saturation 0 h: 1.0%
[6]; 3 h
  Iron-Saturation 3 h: 5.0%
[6]; 24 h
  Iron-Saturation 24 h: 4.1%
